Source: PubChem BioAssay AID1645864 (Buhrlage Lab, Dana-Farber Cancer Institute and Novartis …, 2021)
The source made the active and inactive calls.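 How the source made its calls: active means maximal inhibition of USP17 at or above 30% in the confirmation dose-response, a value not among the printed readouts; inactive means the rest.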

The molecules below were run against Ubiquitin carboxyl-terminal hydrolase 17-like protein 5 (Homo sapiens) (UniProt A8MUK1) (assay: ubiquitin-specific protease 17 DUB inhibitors, concentration-effect assay, cell-free, verification of initial screening actives (AID 1645864)). Settings: purified USP17, ubiquitin-rhodamine cleavage fluorescence, 3 h.
Sequence of Ubiquitin carboxyl-terminal hydrolase 17-like protein 5 (Homo sapiens) (A8MUK1 whole entry, looked up): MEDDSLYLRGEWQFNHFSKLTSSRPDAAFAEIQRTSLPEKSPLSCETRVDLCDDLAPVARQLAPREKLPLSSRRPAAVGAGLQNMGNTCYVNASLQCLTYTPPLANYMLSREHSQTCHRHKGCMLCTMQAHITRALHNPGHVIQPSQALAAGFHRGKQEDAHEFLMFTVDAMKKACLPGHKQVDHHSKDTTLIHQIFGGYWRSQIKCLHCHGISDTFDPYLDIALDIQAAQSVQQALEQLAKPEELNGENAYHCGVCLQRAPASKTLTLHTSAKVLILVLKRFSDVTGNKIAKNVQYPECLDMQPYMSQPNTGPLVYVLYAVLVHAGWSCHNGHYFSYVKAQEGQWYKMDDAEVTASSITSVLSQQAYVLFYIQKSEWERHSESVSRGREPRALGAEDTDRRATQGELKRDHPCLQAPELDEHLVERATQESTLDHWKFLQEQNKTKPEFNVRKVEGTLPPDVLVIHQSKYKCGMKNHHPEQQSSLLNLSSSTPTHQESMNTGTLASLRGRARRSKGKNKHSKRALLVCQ
For NC(=O)CCC(=O)N[C@H]1C[C@H]2CN(Cc3ccccc3)c3ccccc3CN2C1, the IC50 was > 50 µM (inactive).
For Cc1ccc(NC(=O)CCC(=O)Nc2ccc3nc(N4CCCCC4)cc(C)c3c2)c(Br)c1, the IC50 was 49.7 µM.
With CCN(Cc1ccccc1)S(=O)(=O)c1ccc(C(=O)Nc2ccc3c(c2)OCCO3)cc1 the IC50 was > 50 µM (inactive).
In the case of Cc1cc(C)c2nc3c(cc2c1)CN(Cc1ccco1)C(=O)O3, the IC50 is reported as > 50 µM (inactive).
Work on COCCCNC(=O)c1ccc(Cn2c(=O)c3ccccc3n(CC(=O)Nc3ccc(OC)cc3)c2=O)cc1 yielded an IC50 of 29.7 µM.
Molecule COc1ccc(NC(=O)C2CCCN(S(=O)(=O)N3CCCCCC3)C2)cc1 (stereo unspecified) has an IC50 of 29.7 µM.
Cc1sc2nc(CN3CCCC3)nc(NCCc3ccc(Cl)cc3)c2c1C was tested, and the IC50 was > 50 µM (inactive).
N#Cc1ccc(NC(=O)Nc2cccn(Cc3ccccc3F)c2=O)cc1 was tested, and the IC50 was 6.33 µM.
Molecule CC(C)Cc1nc2sc3c(NCc4ccccc4)ncnc3c2c2c1COC(C)(C)C2 has an IC50 of 6.77 µM.
With CCOc1ccccc1NC(=O)Cn1c(-c2ccc3c(c2)OCO3)cn(-c2ccc(OC)cc2)c1=O the IC50 was > 50 µM (inactive).
Molecule CC1=C(c2ccc(F)cc2)S(=O)(=O)NC1=NCC(=O)Nc1ccc(F)cc1 has an IC50 of 40.6 µM.
With COc1ncccc1CN1CCn2c(Cn3cncn3)cnc2C1C (stereo unspecified) the IC50 was > 50 µM (inactive).
For Cc1ccc2c(c1)N(Cc1nc(-c3ccc(F)cc3)no1)C(=O)CO2, the IC50 was > 50 µM (inactive).
In the case of CCOC(=O)c1nc(Nc2ccc(OC)c(Cl)c2)c2ccccc2n1, the IC50 is reported as 25.3 µM.
Work on COc1ccc(NC(=O)C2c3ccccc3C(=O)N(C3CCCC3)C2c2cccs2)cc1OC (stereo unspecified) yielded an IC50 of 47.1 µM.
In the case of c1ccc2c(-c3nc(C4CC4)no3)nnc(NCc3ccncc3)c2c1, the IC50 is reported as 38.7 µM.
With COc1ccc(N2C(=O)[C@@H]3[C@H]4c5ccccc5C=CN4C(C(=O)Nc4ccc5c(c4)OCO5)[C@@H]3C2=O)cc1 (stereo partly specified) the IC50 was > 50 µM (inactive).
Cc1nc(SCC#N)c2oc3ccccc3c2n1 was tested, and the IC50 was 44.1 µM.
In the case of Cc1ccc2oc(=O)c(S(=O)(=O)N3CCCCC3)cc2c1, the IC50 is reported as 16.4 µM.
For COc1ccc(C2SCC(=O)Nc3c2c(=O)[nH]n3C2CCCCCC2)cc1 (stereo unspecified), the IC50 was 33.5 µM.
COc1cccc(NC(=O)CCc2c(C)nn(-c3cc(N4CCCCC4)ncn3)c2C)c1 was tested, and the IC50 was > 50 µM (inactive).
For COc1ccc(-c2cc(C(F)F)n3ncc(C(=O)Nc4ccc5c(c4)OCCO5)c3n2)cc1, the IC50 was > 50 µM (inactive).
With O=C(Cc1noc2ccccc12)NCC(=O)Nc1ccc(Cl)cc1 the IC50 was 18.1 µM.
O=C(NC1(O)C(=O)c2ccccc2C1=O)c1cccc2c1-c1ccccc1C2=O showed an IC50 of 11.2 µM.
For COc1cccc(NC(=O)C2Cc3ccccc3N2C(=O)c2ccccc2)c1 (stereo unspecified), the IC50 was 27.7 µM.
COc1ccc(CNC(=O)CSc2nc3nc(C)ccc3o2)cc1 gave an IC50 of 25 µM.
Work on CCOc1ccccc1C(=O)Oc1ccc2c(C)cc(=O)oc2c1 yielded an IC50 of 26.1 µM.
Cc1ccccc1-c1noc(-c2ccccc2OCC(=O)NC(C)C)n1 was tested, and the IC50 was > 50 µM (inactive).
With Cc1cc2nc(-c3ccc(SCc4ccccn4)nc3)[nH]c2cc1C the IC50 was 31.3 µM.
For Cc1ccc2c(c1)N=C(c1ccc([N+](=O)[O-])cc1)CO2, the IC50 was > 50 µM (inactive).
O=C(/C=C/c1ccc(F)cc1)Nc1ccc2c(c1)OCCO2 was tested, and the IC50 was > 50 µM (inactive).
COc1ccc(Nc2ncc(C(=O)Nc3ccc(Oc4ccccc4)cc3)c3ccccc23)cc1 was tested, and the IC50 was > 50 µM (inactive).
Work on CCn1c(SCC(=O)c2c(N)n(CC(C)C)c(=O)n(C)c2=O)nnc1-c1ccccc1 yielded an IC50 of 16 µM.
With O=c1[nH]cccc1NS(=O)(=O)c1ccc(F)cc1 the IC50 was > 50 µM (inactive).
For C=Cc1ccc(Cn2cccc(S(=O)(=O)N3CCCC3)c2=O)cc1, the IC50 was 3.92 µM.
In the case of O=C(Nc1cccc(-c2nc3ccccc3[nH]2)c1)c1cc2ccccc2oc1=O, the IC50 is reported as 0.429 µM.
COc1ccc(OC)c(NC(=O)C2=C(C)Nc3ncnn3C2c2ccccc2OCc2ccc(C)cc2)c1 (stereo unspecified) showed an IC50 of 12.2 µM.
For CCn1c(=N)n(CCOc2ccc(F)cc2)c2ccccc21, the IC50 was > 50 µM (inactive).
With COc1ccc(Cl)cc1NC(=O)c1cc(-c2ccccn2)n[nH]1 the IC50 was 0.202 µM.
Cc1cc(C)c2cc(C(=O)NC3CCN(Cc4ccccc4)CC3)[nH]c2c1 gave an IC50 of 14.7 µM.
In the case of O=C(COC(=O)CCc1ccc(S(=O)(=O)N2CCOCC2)cc1)Nc1ccc2c(c1)OCCO2, the IC50 is reported as > 50 µM (inactive).
With COCCN(C1CCN(CCc2ccc(Cl)cc2)CC1)S(=O)(=O)c1cccc2cccnc12 the IC50 was > 50 µM (inactive).
For O=C(Cn1cccc1-c1nc(-c2ccccc2)cs1)N1CCOCC1, the IC50 was 16 µM.
In the case of O=C(OCc1ccc(Br)cc1)c1ccc2ccccc2n1, the IC50 is reported as > 50 µM (inactive).
For COc1ccccc1CNC(=O)c1ccccc1OCc1ccccc1Cl, the IC50 was > 50 µM (inactive).
With Cc1cccc(NC(=O)Cn2cnc(-c3noc(-c4ccccc4)n3)c2)c1C the IC50 was 1.35 µM.
COc1ccc(-n2c(SCC(=O)c3ccc(F)cc3)nnc2-c2cccnc2)cc1 showed an IC50 of 23.8 µM.
COc1ccc(C(=O)Nc2cc(-c3ccccn3)no2)cn1 was tested, and the IC50 was > 50 µM (inactive).
Work on O=C(Nc1cccc(C(F)(F)F)c1)c1cc2c(s1)-c1ccccc1OC2 yielded an IC50 of 2.15 µM.
In the case of Cc1ccc(Nc2nc(NCCc3ccccc3)nc3c2cnn3C)cc1, the IC50 is reported as 44.6 µM.
In the case of Cc1cccc(C(=O)N2CCc3cc(-c4nc(NC(=O)CNc5ccccc5)sc4C)ccc32)c1, the IC50 is reported as > 50 µM (inactive).
Work on Cc1ccc(C(=O)c2cn(CC(=O)Nc3ccccc3)c3ccc(C)cc3c2=O)cc1 yielded an IC50 of 10.9 µM.
O=C(COC(=O)c1cc(Cl)ccc1O)Nc1ccc2c(c1)OCCO2 was tested, and the IC50 was 29.2 µM.
In the case of Cc1ccc2c(=O)c(C(=O)Nc3ccccc3)cn(CC(=O)NC3CCCCC3)c2n1, the IC50 is reported as less than 0.05 µM.
CCCCCC(=O)N1c2ccccc2NC2=C(C(=O)CC(c3ccc(C(C)(C)C)cc3)C2)C1c1ccncc1 (stereo unspecified) gave an IC50 of 4.7 µM.
In the case of COc1ccccc1OCC(=O)Nc1ccc2c(c1)CCC(=O)N2Cc1ccccc1, the IC50 is reported as > 50 µM (inactive).
Molecule COc1ccc(CCN2COc3c(cc(Cl)c4cccnc34)C2)cc1OC has an IC50 of 24.8 µM.
In the case of CCOc1ccc(CCNC(=O)c2cccc3c2C(=O)N(CCOC)C3)cc1OCC, the IC50 is reported as > 50 µM (inactive).
With CS(=O)(=O)NC1CCCN(C(=O)Nc2cccc3ccccc23)C1 (stereo unspecified) the IC50 was 17.3 µM.
In the case of CC1CCN(c2cc(-n3cnc(C(=O)N4CCCCC4)c3)ncn2)CC1, the IC50 is reported as > 50 µM (inactive).
For CC(NC(=O)c1ccccc1)c1nc2ccccc2n1CC(=O)Nc1ccc2c(c1)OCO2 (stereo unspecified), the IC50 was 2.25 µM.
COc1ccc(OC)c(NC(=O)c2ccc(-n3nnnc3SC)cc2)c1 gave an IC50 of 29.9 µM.
Molecule O=C(Nc1ccc(F)cc1F)NC1CCN(c2ccccc2)C1=O (stereo unspecified) has an IC50 of 18.3 µM.
For COc1cccc2c1OCC(C(=O)NCc1ccc(F)cc1)=C2, the IC50 was > 50 µM (inactive).
In the case of Cc1ccc(NC(=O)c2c3c(nc4ccccc24)CCCCC3)c(C)c1, the IC50 is reported as > 50 µM (inactive).
With COc1ccc2c(c1)c(N1CCCC1=O)c(C(=O)NCc1cccc(OC)c1OC)n2C the IC50 was > 50 µM (inactive).
In the case of Cn1nccc1C(=O)N1CCCCC1c1ncc(Cc2ccc(Cl)cc2)o1 (stereo unspecified), the IC50 is reported as > 50 µM (inactive).
Molecule Cc1ccc(C(=O)NCc2ccc(C(=O)Nc3cccc(C)c3)o2)cc1 has an IC50 of 32.5 µM.
With COc1ccccc1-c1nc2c3c(C)c(C)n(Cc4cccnc4)c3ncn2n1 the IC50 was > 50 µM (inactive).
O=C(CSc1nnc(CNC(=O)c2ccccc2F)o1)Nc1ccc(OC(F)(F)F)cc1 was tested, and the IC50 was 33 µM.
COc1ccc(NS(=O)(=O)c2ccc(NC(=O)Nc3ccc(Cl)cc3)cc2)cc1 gave an IC50 of 23.9 µM.
For Cc1ncncc1C(=O)N1CCCC(C)(c2ncc(Cc3cccc(F)c3)o2)C1 (stereo unspecified), the IC50 was > 50 µM (inactive).
In the case of COc1ccc(CNC(=O)C(C)n2nc(-c3ccco3)c(-c3cc(C)no3)cc2=O)cc1 (stereo unspecified), the IC50 is reported as 25.1 µM.
COc1ccc(-c2cc(C(=O)NC3CCCCCC3)[nH]n2)cc1S(=O)(=O)N(C)C showed an IC50 of 44.5 µM.
Cc1sc(-c2cccnc2)nc1OC(=O)c1ccc(Cl)c(Cl)c1 was tested, and the IC50 was > 50 µM (inactive).
O=C(CNC(=O)OCc1ccccc1)Nc1ccc(Br)cc1C(=O)c1ccccc1Cl gave an IC50 of 9.66 µM.
For CCOC(=O)Nc1ccc(N2CCn3c(nc4ccccc43)C2)cc1OC, the IC50 was > 50 µM (inactive).
In the case of Cc1ccc2[nH]c(=O)c(CN(Cc3cccnc3)C(=O)c3cccc(Cl)c3)cc2c1, the IC50 is reported as > 50 µM (inactive).
Cc1ccc(NC(=O)c2ccn(COc3ccc(F)cc3)n2)nc1 showed an IC50 of 32.1 µM.
Molecule Cc1cccc(NC(=O)Cn2c(N3CCOCC3)nc3cc(C)n(C)c3c2=O)c1 has an IC50 of 27.6 µM.
In the case of O=C(/C=C/c1ccc(F)cc1)N1CCC(Cc2ccccc2)CC1, the IC50 is reported as 41.8 µM.
With CN(CCCNC(=O)c1cccc2c1SCCC2=O)c1ccccc1 the IC50 was > 50 µM (inactive).
COc1ccc(C)cc1NC(=O)C1CC(=O)Nc2nc3ccccc3n21 (stereo unspecified) gave an IC50 of 33.9 µM.
In the case of Cc1cc(Cl)ccc1Nc1nc(Nc2cccc(F)c2)nc2nccnc12, the IC50 is reported as > 50 µM (inactive).
O=c1c(NCCCN2CCCC2)nc2ccncc2n1Cc1ccccc1 was tested, and the IC50 was 29.3 µM.
With FC(F)(F)c1cccc(N2CCN(c3nc4ccccc4n4nnnc34)CC2)c1 the IC50 was > 50 µM (inactive).
Cc1nc2nc(SCc3nc4ccccc4n3C)[nH]c2cc1Br showed an IC50 of 3.51 µM.
For COc1ccccc1OCCNC(=O)c1cc(C2CC2)nc2c1cnn2C(C)C, the IC50 was > 50 µM (inactive).
With COc1ccc(CCNC(=O)COc2ncnc3oc(C)c(C)c23)cc1OC the IC50 was > 50 µM (inactive).
For C[C@@H](C(=O)NCc1ccc(F)cc1)N1C(=O)N2CCc3c([nH]c4ccccc34)[C@@]2(C)C1=O, the IC50 was 5.77 µM.
Molecule O=[N+]([O-])c1ccc(NCc2ccc(-c3cccs3)s2)nc1 has an IC50 of 39.1 µM.
For O=C(c1ccco1)N1CCCC2(C1)Nc1cccnc1NC2=NC1CCCC1 (stereo unspecified), the IC50 was > 50 µM (inactive).
With COc1c(Cl)ccc2c(=O)c3c(O)c4c5c(c3oc12)OCO[C@H]5[C@@H](OC)c1cc2c(c(O)c1-4)C(=O)N(C)[C@H](OC)[C@@H]2O the IC50 was > 50 µM (inactive).
In the case of Cn1cc(CCNC(=O)c2cc3ccccc3[nH]2)c2cccnc21, the IC50 is reported as > 50 µM (inactive).
Molecule Cc1cc(C2CC(=O)Nc3c2c(C)nn3-c2nc3ccccc3[nH]2)c(C)s1 (stereo unspecified) has an IC50 of 23 µM.
For CC(C)Oc1ccc(C(=O)Nc2cccc(S(=O)(=O)N3CCCC3)c2)cc1, the IC50 was > 50 µM (inactive).
CSc1ncc(C(=O)NC(C)c2ccccc2)c(-c2ccccc2)n1 (stereo unspecified) gave an IC50 of 20.5 µM.
In the case of CCOc1ccc(CCNC(=O)CCC(=O)Nc2ccc3nc(N4CCN(C)CC4)cc(C)c3c2)cc1OCC, the IC50 is reported as > 50 µM (inactive).
Cc1ccccc1NC(=O)Cn1c(N2CCOCC2)nc2cc(C)n(C)c2c1=O was tested, and the IC50 was 25.8 µM.
O=C1Oc2nc3ccccc3cc2CN1Cc1ccco1 was tested, and the IC50 was 23.9 µM.
Fc1cccc(Cn2cc(-c3noc(-c4cccnc4)n3)nn2)c1 was tested, and the IC50 was 38.3 µM.
